# Results as given in patent US8658183B2, “Antimicrobial parenteral formulation” (Taigen Biotechnology Company, Ltd., priority 2007, dated 2014).
# Read-outs that look alike come from different tables or passages of the source.
# Experiments:
# [1] = for Appearance: 5 mg/mL (free base) in 0.9% saline, light box 4500Lx+/−500Lx; for UV Absorption: compared with Standard; for UV Absorption / pH Value: intense light 4500Lx+/−500Lx
# [2] = Effect of pH on Compound 1 saline formulation; type: physicochemical
# Procedure: 2000 mL solution of Compound 1 in 0.9% saline was prepared in the same manner as described above. The solution was equally divided into 6 portions. The pH values for the 6 portions were adjusted to 2.43, 3.00, 3.76, 4.51, 6.01 and 7.13 by adding dilute hydrochloric acid or sodium hydroxide. The appearance and content of solutions were analyzed and shown below.
# staphylococci = experiment: In vitro antibacterial activity, agar dilution; type: cell-based, Staphylococcus
# Procedure: (§1) Various bacterial species, such as Gram positive bacteria (e.g., Clostridium, Staphylococcus and Streptococcus), Gram negative bacteria (e.g., Moraxella, Haemophilus, Pseudomonas, Proteus, and Bacteriodes), anaerobic and atypical pathogens, were isolated from clinical samples. The antibacterial activity of Compound of Formula I against these bacterial species were determined using agar dilution assays described in the U.S. National Committee for Clinical Laboratory, M7-A6, 2003, and M11-A5, 2001.
# Bacteroides species = experiment: In vitro antibacterial activity, agar dilution; type: cell-based; settings: anaerobic pathogens, clinical isolates
# Procedure: as §1
# Neisseria gonorrhoeae = experiment: In vitro antibacterial activity, agar dilution; type: cell-based; settings: clinical isolates
# Procedure: as §1
# E. coli = experiment: In vitro antibacterial activity, agar dilution; type: cell-based; settings: clinical isolates
# Procedure: as §1
# Moraxella catarrhalis = experiment: In vitro antibacterial activity, agar dilution; type: cell-based; settings: clinical isolates
# Procedure: as §1
# Klebsiella pneumoniae = experiment: In vitro antibacterial activity, agar dilution; type: cell-based; settings: clinical isolates
# Procedure: as §1
# Proteus mirabilis = experiment: In vitro antibacterial activity, agar dilution; type: cell-based; settings: clinical isolates
# Procedure: as §1
# [3] = system: methicillin-susceptible S. aureus (MSSA); experiment: In vitro antibacterial activity, agar dilution; type: cell-based
# Procedure: as §1
# Pseudomonas aeruginosa = experiment: In vitro antibacterial activity, agar dilution; type: cell-based; settings: clinical isolates
# Procedure: as §1
# enteric organisms = experiment: In vitro antibacterial activity, agar dilution; type: cell-based; settings: clinical isolates
# Procedure: as §1
# Clostridium difficile = experiment: In vitro antibacterial activity, agar dilution; type: cell-based; settings: anaerobic pathogen, clinical isolates
# Procedure: as §1
# S. pneumoniae = experiment: In vitro antibacterial activity, agar dilution; type: cell-based
# Procedure: as §1
# [4] = system: Gram positive, Gram negative, anaerobic, and atypical pathogens; experiment: In vitro antibacterial activity, agar dilution; type: cell-based; settings: clinical isolates
# Procedure: as §1
# Haemophilus influenzae = experiment: In vitro antibacterial activity, agar dilution; type: cell-based; settings: clinical isolates
# Procedure: as §1
# [5] = Effect of activated charcoal on Compound 1 saline formulation; settings: 5 mg/mL in 0.9% NaCl
# S. pneumoniae Stp 6301 = experiment: In vivo antibacterial efficacy, mouse pulmonary infection model
# Procedure: The in vivo antibacterial efficacy of Compound 1 was evaluated in a mouse model. Mice were anesthetized and infected intranasally with a lethal amount of S. pneumoniae Stp 6301. Twelve, eighteen, and twenty-four hours after the infection, a composition containing Compound 1 or moxifloxacin (as a positive control), 0.7% lactic acid, and 3% dextrose was administered subcutaneously to the mice at a total dose of 50, 25, 12.5, or 6.25 mg/kg. Half of the treated mice were euthanized four hours after the last treatment of Compound 1 or moxifloxacin and their blood and lung tissues were collected. The number of viable bacteria in the blood and lung tissues was then determined. The lung tissues were also subjected to histopathologic evaluation. The other half of the mice were monitored for 6 days and the number of the surviving mice was recorded.
# [6] = Effect of temperature and time during sterilization on Compound 1 saline formulation; type: physicochemical; settings: 0.9% saline
# Procedure: To the solution was added 1.5 g of activated charcoal (0.05% g/mL). The mixture was stirred for 15 min and filtered. The filtrate was added to a serious of 100-mL polypropylene bottles. The filled bottles were capped, sealed, and divided into four groups (7 bottles/group).
# MRSA = experiment: In vitro antibacterial activity, agar dilution; type: cell-based, S. aureus
# Procedure: as §1
# [7] = Effect of iron content on Compound 1 saline formulation; type: physicochemical; settings: 5 mg/mL in 0.9% saline, filtered, sterilized
# Procedure: The solution was equally divided into 2 portions. To one portion was added 0.25 g activated charcoal and to the other was added 0.25 g activated charcoal and 0.1 g of iron powder. Each of the resulting mixture was stirred and filtered to a 100-mL polypropylene bottle.
# [8] = Long-term and accelerated storage stability of Compound 1 saline formulation; type: physicochemical; settings: 5 mg/mL (free base) in 0.9% saline
# Procedure: At each sampling point (marked as “X” in the above table), samples were evaluated for their appearance, color, clarity, pH, UV absorption, assay and impurity.
# [9] = 5 mg/mL in 0.9% saline
# Procedure: The solution was filtered and transferred to 100-mL polypropylene bottles. The bottles were capped, sealed, sterilized at 110° C. for 35 min, and stored at 60° C. oven. The solution in the bottles was analyzed on days 0, 5, and 10.
# [10] = Effect of pH on Compound 1 saline formulation; type: physicochemical; settings: 5 mg/mL in 0.9% saline
# streptococci = experiment: In vitro antibacterial activity, agar dilution; type: cell-based, Streptococcus
# Procedure: as §1
# [11] = Effect of lower temperature (−15° C.) on Compound 1 saline formulation; type: physicochemical; settings: 5 mg/mL in 0.9% saline
# [12] = 5 mg/mL in 5% dextrose
# Procedure: The solution was filtered and transferred to in 100-mL polypropylene bottles. The bottles were capped, sealed, sterilized at 110° C. for 35 min, and stored at 60° C. oven. The solution in the bottles was analyzed on days 0, 5, and 10.
# [13] = 5 mg/mL in 0.9% saline, pH 3.00
# [14] = 5 mg/mL in 0.9% saline, pH 3.76 (no acid/base added)
# [15] = 5 mg/mL in 0.9% saline, pH 6.01
# [16] = activated charcoal added 0.02% (g/mL)
# [17] = activated charcoal added 0.05% (g/mL)
# [18] = activated charcoal added 0.5% (g/mL)
# [19] = sterile temperature N/A (control group)
# [20] = activated charcoal and iron powder added
# [21] = activated charcoal, no iron powder
# [22] = 0 day, after sterilization (110° C., 35 min)
compound,measurement,setting,value
"COc1c(N2C[C@@H](C)C[C@H](N)C2)ccc2c(=O)c(C(=O)O)cn(C3CC3)c12 [Compound 1, (3S,5S)-7-[3-amino-5-methyl-piperidinyl]-1-cyclopropyl-1,4-dihydro-8-methoxy-4-oxo-3-quinolinecarboxylic acid]",Appearance,[1]; 0 day,Clear yellow
same,Appearance,[1]; 5 days,Clear yellow
same,Appearance,[1]; 10 days,Clear yellow
same,UV Absorption,[1]; 0 day,Consist with
same,UV Absorption,[1]; 5 days,Consist with
same,UV Absorption,[1]; 10 days,Consist with
same,pH Value,[1]; 0 day,3.90
same,pH Value,[1]; 5 days,3.89
same,pH Value,[1]; 10 days,3.89
same,pH Value,"[2]; 5 mg/mL in 0.9% saline, no acid/base added",3.76
same,Appearance,[2]; [13],clear yellow solution
same,Comparative content of Compound 1 (%),[2]; [13],94.87%
same,Appearance,[2]; [14],clear yellow solution
same,Comparative content of Compound 1 (%),[2]; [14],103.62%
same,Appearance,[2]; [15],clear yellow solution
same,Comparative content of Compound 1 (%),[2]; [15],99.63%
same,pH at which Compound 1 precipitated,[2]; 5 mg/mL in a saline solution,6.6
same,MIC values,staphylococci; all staphylococci in this study,< 2 mg/L
same,antibacterial activity (in words),staphylococci; including methicillin-resistant S. aureus (MRSA),especially active
same,antibacterial activity (in words),Bacteroides species,active
same,MIC90,Neisseria gonorrhoeae,0.06 mg/L
same,MIC90,E. coli,0.12 mg/L
same,MIC90,Moraxella catarrhalis,0.03 mg/L
same,MIC90,Klebsiella pneumoniae,1 mg/L
same,MIC90,Proteus mirabilis,0.5 mg/L
same,MIC90,[3]; ciprofloxacin-resistant MSSA clinical isolates,0.5 mg/L
same,MIC90,[3]; ciprofloxacin-sensitive MSSA clinical isolates,0.06 mg/L
same,antibacterial activity (in words),Pseudomonas aeruginosa,active against many isolates
same,antibacterial activity (in words),enteric organisms,active against most enteric organisms
same,antibacterial activity (in words),Clostridium difficile,active
same,MIC90,S. pneumoniae; macrolide-resistant S. pneumoniae isolates,0.12 mg/L
same,MIC90,S. pneumoniae; penicillin-resistant S. pneumoniae isolates,0.12 mg/L
same,MIC90,S. pneumoniae; susceptible S. pneumoniae isolates,0.12 mg/L
same,antibacterial activity (in words),[4],"potent, broad-spectrum antibacterial activity"
same,MIC90,Haemophilus influenzae,0.12 mg/L
same,Comparative content of Compound 1 (%),[5]; activated charcoal added 0,109.0%
same,pH Value,"[5]; activated charcoal added 0, boiled 25 min, filtered, sterilized",3.96
same,Comparative content of Compound 1 (%),[5]; [16],108.8%
same,pH Value,[5]; [16],3.88
same,Comparative content of Compound 1 (%),[5]; [17],109.2%
same,pH Value,[5]; [17],3.88
same,Comparative content of Compound 1 (%),[5]; [18],63.9%
same,pH Value,[5]; [18],3.80
same,survival,"S. pneumoniae Stp 6301; lethal intranasal infection, s.c. total dose 50, 25, 12.5 or 6.25 mg/kg (all tested levels), monitored 6 days",100%
same,viable bacteria in lung and blood,"S. pneumoniae Stp 6301; mice infected intranasally, s.c. 12, 18, 24 h after infection, total dose 50, 25, 12.5 or 6.25 mg/kg (all levels), 4 h after last treatment, vs vehicle-treated controls",significantly reduced
same,efficacy compared with moxifloxacin,"S. pneumoniae Stp 6301; same dosage levels, pulmonary infection model",more efficacious than moxifloxacin
same,Content (%),[6]; [19],95.20%
same,Total Impurity (%),[6]; [19],0.167%
same,pH Value,[6]; [19],3.86
same,Content (%),[6]; sterilization 105° C./35 min,96.44%
same,Total Impurity (%),[6]; sterilization 105° C./35 min,0.198%
same,pH Value,[6]; sterilization 105° C./35 min,3.86
same,Content (%),[6]; sterilization 110° C./35 min,95.86%
same,Total Impurity (%),[6]; sterilization 110° C./35 min,0.240%
same,pH Value,[6]; sterilization 110° C./35 min,3.86
same,Content (%),[6]; sterilization 115° C./35 min,95.98%
same,Total Impurity (%),[6]; sterilization 115° C./35 min,0.509%
same,pH Value,[6]; sterilization 115° C./35 min,3.85
same,MIC90,MRSA; ciprofloxacin-resistant MRSA clinical isolates,1 mg/L
same,MIC90,MRSA; ciprofloxacin-sensitive MRSA clinical isolates,0.06 mg/L
same,Appearance,[7]; [20],Reddish Brown
same,pH,[7]; [20],3.77
same,Appearance,[7]; [21],Light yellow
same,pH,[7]; [21],3.78
same,"Changes in appearance, color, clarity, pH, UV absorption, assay and impurity","[8]; 25° C., 60% RH, 12 months",No significant changes
same,"Changes in appearance, color, clarity, pH, UV absorption, assay and impurity","[8]; 40° C., 20% RH, 6 months",No significant changes
same,Appearance,"[9]; sterilized, 0 day",Clear yellow
same,Comparative content of Compound 1 (%),"[9]; sterilized, 0 day",102.6%
same,Total Impurity (%),"[9]; sterilized, 0 day",0.378%
same,pH Value,"[9]; sterilized, 0 day",3.90
same,Appearance,[9]; 5 days at 60° C.,Clear yellow
same,Comparative content of Compound 1 (%),[9]; 5 days at 60° C.,103.2%
same,Total Impurity (%),[9]; 5 days at 60° C.,0.375%
same,pH Value,[9]; 5 days at 60° C.,3.88
same,Appearance,[9]; 10 days at 60° C.,Clear yellow
same,Comparative content of Compound 1 (%),[9]; 10 days at 60° C.,104.0%
same,Total Impurity (%),[9]; 10 days at 60° C.,0.410%
same,pH Value,[9]; 10 days at 60° C.,3.88
same,Appearance,[10]; pH 2.17,clear yellow solution
same,Comparative content of Compound 1 (%),[10]; pH 2.17,96.68%
same,Appearance,[10]; pH 4.50,clear yellow solution
same,Comparative content of Compound 1 (%),[10]; pH 4.50,101.14%
same,Appearance,[10]; pH 6.60,White precipitate
same,MIC values,streptococci; all streptococci in this study,< 1 mg/L
same,antibacterial activity (in words),streptococci; including multi-resistant S. pneumoniae,especially active
same,Appearance,[11]; 0 day at −15° C.,Clear yellow
same,Content,[11]; 0 day at −15° C.,102.6
same,Total Impurity (%),[11]; 0 day at −15° C.,0.378%
same,pH Value,[11]; 0 day at −15° C.,3.90
same,Appearance,[11]; 5 days at −15° C.,Clear yellow
same,Content,[11]; 5 days at −15° C.,102.8
same,Total Impurity (%),[11]; 5 days at −15° C.,0.370%
same,pH Value,[11]; 5 days at −15° C.,3.89
same,Appearance,[11]; 10 days at −15° C.,Clear yellow
same,Content,[11]; 10 days at −15° C.,103.5
same,Total Impurity (%),[11]; 10 days at −15° C.,0.373%
same,pH Value,[11]; 10 days at −15° C.,3.89
same,"Appearance, compound content, pH and total impurity (summary in words)",[11]; −15° C. for 10 days,maintained the same
same,Appearance,[12]; [22],Clear yellow
same,Comparative content of Compound 1 (%),[12]; [22],97.8%
same,pH,[12]; [22],3.88
same,Appearance,"[12]; 0 day, before sterilization",Clear yellow
same,Comparative content of Compound 1 (%),"[12]; 0 day, before sterilization",100.4%
same,pH,"[12]; 0 day, before sterilization",3.89
same,Appearance,[12]; 5 days at 60° C.,Dark yellow
same,Comparative content of Compound 1 (%),[12]; 5 days at 60° C.,96.0%
same,pH,[12]; 5 days at 60° C.,4.03
same,Appearance,[12]; 10 days at 60° C.,Brown
same,Comparative content of Compound 1 (%),[12]; 10 days at 60° C.,94.2%
same,pH,[12]; 10 days at 60° C.,4.08
